Test results from ChEMBL document CHEMBL3091357, “Synthesis and biological evaluation of nimesulide based new class of triazole derivatives as potential PDE4B inhibitors against cancer cells” (Bioorg Med Chem Lett, 2013).
Calls of active or inactive are those of the source. The rule behind the calls is not given here.

Columns and labels:
[1] = molecular target: T1, 3',5'-cyclic-AMP phosphodiesterase 4B (Homo sapiens, UniProt Q07343); test: Inhibition of recombinant His-tagged PDE4B1 (unknown origin) expressed in insect Sf9 cells using cAMP as substrate at 30 uM preincubated for 15 mins followed by substrate addition measured after 1 hr by luminescence assay relative to control
T1 sequence (Q07343 whole entry): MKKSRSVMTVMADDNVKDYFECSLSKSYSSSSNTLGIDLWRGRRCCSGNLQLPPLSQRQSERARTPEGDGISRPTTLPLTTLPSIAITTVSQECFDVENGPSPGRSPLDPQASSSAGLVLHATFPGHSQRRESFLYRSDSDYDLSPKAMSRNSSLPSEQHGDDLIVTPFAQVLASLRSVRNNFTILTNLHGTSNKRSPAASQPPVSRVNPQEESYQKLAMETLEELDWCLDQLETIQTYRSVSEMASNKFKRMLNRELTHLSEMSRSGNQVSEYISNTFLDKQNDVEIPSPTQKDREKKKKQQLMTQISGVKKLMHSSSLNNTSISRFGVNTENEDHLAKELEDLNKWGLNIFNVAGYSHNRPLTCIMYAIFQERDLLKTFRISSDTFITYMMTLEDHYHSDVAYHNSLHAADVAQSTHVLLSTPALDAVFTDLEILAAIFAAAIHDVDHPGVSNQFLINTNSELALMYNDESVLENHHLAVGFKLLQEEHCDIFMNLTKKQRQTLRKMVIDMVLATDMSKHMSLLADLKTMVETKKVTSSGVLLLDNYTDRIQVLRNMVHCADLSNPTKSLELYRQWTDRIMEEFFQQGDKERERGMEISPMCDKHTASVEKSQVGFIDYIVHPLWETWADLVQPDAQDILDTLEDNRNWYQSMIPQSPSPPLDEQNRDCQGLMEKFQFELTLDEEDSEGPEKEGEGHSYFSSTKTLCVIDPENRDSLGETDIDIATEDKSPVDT

[2] = test system: HCT-15; test: Cytotoxicity against human HCT15 cells assessed as cell death after 48 hrs by MTT assay; type: functional, cell-based; settings: HCT-15, 48 h
[3] = molecular target: T1, 3',5'-cyclic-AMP phosphodiesterase 4B; test: Inhibition of recombinant His-tagged PDE4B1 (unknown origin) expressed in insect Sf9 cells using cAMP as substrate preincubated for 15 mins followed by substrate addition measured after 1 hr by luminescence assay
[4] = test system: HCT-15; test: Cytotoxicity against human HCT15 cells assessed as cell death at 5 ug/mL after 48 hrs by MTT assay relative to control; type: functional; settings: HCT-15, 48 h
[5] = test system: HCT-15; test: Cytotoxicity against human HCT15 cells assessed as cell death at 25 ug/mL after 48 hrs by MTT assay relative to control; type: functional; settings: HCT-15, 48 h
[6] = test system: HCT-15; test: Cytotoxicity against human HCT15 cells assessed as cell death at 15 ug/mL after 48 hrs by MTT assay relative to control; type: functional; settings: HCT-15, 48 h
[7] = test system: HCT-15; test: Cytotoxicity against human HCT15 cells assessed as cell death at 10 ug/mL after 48 hrs by MTT assay relative to control; type: functional; settings: HCT-15, 48 h
[8] = test system: HCT-15; test: Cytotoxicity against human HCT15 cells assessed as cell death at 20 ug/mL after 48 hrs by MTT assay relative to control; type: functional; settings: HCT-15, 48 h

CS(=O)(=O)Nc1ccc(NC(=O)Cn2cc(COc3ccccc3Cl)nn2)cc1Oc1ccccc1
inhibition [1]: 42.5%

CS(=O)(=O)Nc1ccc([N+](=O)[O-])cc1Oc1ccccc1
inhibition [1]: inactive

Cc1cc(OCc2cn(CC(=O)Nc3ccc(NS(C)(=O)=O)c(Oc4ccccc4)c3)nn2)ccc1Cl
inhibition [1]: 32.9%

Cc1ccc(OCc2cn(CC(=O)Nc3ccc(NS(C)(=O)=O)c(Oc4ccccc4)c3)nn2)cc1
inhibition [1]: 56.7%

CS(=O)(=O)Nc1ccc(NC(=O)Cn2cc(COc3ccc(Cl)cc3)nn2)cc1Oc1ccccc1
inhibition [1]: 51.3%

COc1ccc(C2CNC(=O)C2)cc1OC1CCCC1 (stereo unspecified)
inhibition [1]: 94.1%

CS(=O)(=O)Nc1ccc(NC(=O)Cn2cc(COc3ccccc3)nn2)cc1Oc1ccccc1
inhibition [1]: 51.2%

CS(=O)(=O)Nc1ccc(NC(=O)Cn2cc(-c3ccccc3)nn2)cc1Oc1ccccc1
IC50 [2]: 22.4 µg/mL | IC50 [3]: 4920 nM | inhibition [3]: Dose-dependent effect | mortality at 5 µg/mL [4]: 10.8% | mortality at 25 µg/mL [5]: 60.1% | mortality at 15 µg/mL [6]: 31% | mortality at 10 µg/mL [7]: 15.2% | inhibition [1]: 64.1% | mortality at 20 µg/mL [8]: 42.7%

CS(=O)(=O)Nc1ccc(NC(=O)Cn2cc(COc3ccc([N+](=O)[O-])cc3)nn2)cc1Oc1ccccc1
inhibition [1]: 47.1%

Cc1ccc(-c2cn(CC(=O)Nc3ccc(NS(C)(=O)=O)c(Oc4ccccc4)c3)nn2)cc1
IC50 [2]: 21 µg/mL | mortality at 5 µg/mL [4]: 37% | mortality at 25 µg/mL [5]: 53% | mortality at 15 µg/mL [6]: 45.6% | mortality at 10 µg/mL [7]: 40.2% | inhibition [1]: 36% | mortality at 20 µg/mL [8]: 49.6%

CS(=O)(=O)Nc1ccc(NC(=O)Cn2cc(COc3ccc4ccccc4c3)nn2)cc1Oc1ccccc1
mortality at 5 µg/mL [4]: 10.6% | mortality at 25 µg/mL [5]: 33.6% | mortality at 15 µg/mL [6]: 21.1% | mortality at 10 µg/mL [7]: 14.3% | inhibition [1]: 59.7% | mortality at 20 µg/mL [8]: 25.3%

COc1cccc2c1C(=O)c1c(O)c3c(c(O)c1C2=O)C[C@@](O)(C(=O)CO)C[C@@H]3O[C@H]1C[C@H](N)[C@H](O)[C@H](C)O1 [DOXORUBICIN]
IC50 [2]: 90 nM
